This note sets out measurements from patent publication US20120208782A1, “Modulation of Growth of Bifidobacteria Using a Combination of Oligosaccharides Found in Human Milk” (Wyeth LLC, priority 2011, published 2012).

The subject of experiment [1] is Bifidobacterium Infantis ATCC 15697. Briefly: Growth of Bifidobacterium infantis in RCM without glucose, with or without test ingredient (optical density at 595 nm, 30 hours). The following applies: for growth in wells containing the test ingredient versus control medium: optical density 595 nm; for effect on the growth of Bifidobacterium infantis (summary statement): summary in the description. It counts as cell-based. As to the method: (§1) Reinforced Clostridia Medium (RCM) was used for cultivating the bifidobacteria. RCM without glucose was used as a control medium. RCM is a well-known medium for cultivating and enumerating anaerobes, which was first formulated by Hirsch and Grinstead, J. Dairy Res., 21:101 (1954). The test ingredients were 2′-fucosyllactose, 6′-sialyllactose and 3′-sialyllactose dissolved in the control medium at the following concentrations: 1 mg/ml 2′-fucosyllactose; 1 mg/ml 6′-sialyllactose; and, 2 mg/ml 3′-sialyllactose. The bifidobacteria were separately grown overnight anaerobically in RCM, and were then measured and diluted to an optical density of 0.1 as measured by absorbance spectroscopy at 595 nm, and were then further diluted ten-fold to make a working stock. For each test, 50 μl of working stock was added to each well of a 96 well plate containing either 200 μl of control medium (48 wells) or 200 μl test ingredient solution (48 wells). The plate was grown anaerobically for 30 hours and optical density was read at abs 595 nm every 15 minutes. The values for like wells were averaged and plotted over time (FIGS. 1, 3, and 5-7), and the area under the curve (AUC) was calculated over the 30-hour period (FIGS. 2 and 4).

Experiment [2] concerns Bifidobacterium Breve ATCC 15700. Put plainly: Growth of Bifidobacterium breve in RCM without glucose, with or without test ingredient (optical density at 595 nm, 30 hours). It counts as cell-based. On the procedure:
as §1

As for `CC(=O)N[C@H]1[C@H]([C@H](O)[C@H](O)CO)O[C@@](OC[C@H]2O[C@@H](O[C@H]3[C@H](O)[C@@H](O)[C@H](O)O[C@@H]3CO)[C@H](O)[C@@H](O)[C@H]2O)(C(=O)O)C[C@@H]1O` [6′-sialyllactose], in experiment [1] (1 mg/ml 6′-sialyllactose, after 12 hours, FIG. 5), the “growth in wells containing the test ingredient versus control medium” value is reported as “significantly greater”. Besides, in experiment [1], the “effect on the growth of Bifidobacterium infantis (summary statement)” value is “stimulates the growth”.

Consider `CC(=O)N[C@H]1[C@H]([C@H](O)[C@H](O)CO)O[C@@](O[C@H]2[C@@H](O)[C@@H](CO)O[C@@H](O[C@H]3[C@H](O)[C@@H](O)C(O)O[C@@H]3CO)[C@@H]2O)(C(=O)O)C[C@@H]1O` (stereo partly drawn) [3′-sialyllactose], for which the “growth in wells containing the test ingredient versus control medium” value in experiment [1] (2 mg/ml 3′-sialyllactose, after 8 hours, FIG. 7) is given as “significantly greater”; in experiment [2] (2 mg/ml 3′-sialyllactose, after 6 hours, optical density 595 nm, FIG. 6) it was “significantly greater”. Further, the “effect on the growth of Bifidobacterium infantis (summary statement)” value in experiment [1] is given as “stimulates the growth”. Further, the “effect on the growth of Bifidobacterium breve (summary statement)” value in experiment [2] (summary in the description) is “stimulates the growth”.
